Legend:
Details in all cases: IV administration, mean
[1] = Plasma pharmacokinetics of BIC after single SC injection of long acting formulations (and IV infusion) in rat; assay type: in vivo, male Sprague-Dawley rat
Source text: (§1) Pharmacokinetics (PK) following a single BIC SC injection of solution and suspension formulations was characterized in male Sprague-Dawley rat, beagle dog, and cynomolgus monkey. The BIC injectable solution and both suspension formulations display extended-release PK following SC administration in all examined species and support a potential monthly or less frequent dosing regimen. […] Table 1. BIC Plasma Pharmacokinetic Parameters Following a Single Subcutaneous (SC) or Intramuscular (IM) Administration
This study investigated the pharmacokinetics of three formulations of bictegravir (BIC) by subcutaneous administration to determine the potential to deliver a long acting (LA) pharmacokinetic (PK) profile. […] The concentrations of BIC in plasma were determined with a liquid chromatography-tandem mass spectrometry (LC-MS/MS) method. […]
The intravenous dose was administered as a 30-minute infusion via a catheter implanted animals. […] Individual dose was calculated based on body weights recorded on the day of dose administration. […]
For estimation of pharmacokinetic parameters, concentrations reported as below the lower limit of quantification (BLQ) were assigned a value of zero if pre-dose and treated as missing thereafter. […]

[2] = Plasma pharmacokinetics of BIC after single SC injection of long acting formulations (and IV infusion) in dog; assay type: in vivo, beagle dog
Source text: as §1
This study investigated the pharmacokinetics of three formulations of bictegravir (BIC) by subcutaneous administration to determine the potential to deliver a long acting (LA) pharmacokinetic (PK) profile. BIC was administered by a 30-min intravenous (IV) infusion at 0.5 or 1 mg/kg and by subcutaneous (SC) injection of three LA formulations (e.g., NMP solution, HPMC suspension, and PVP suspension) at 10 mg/kg or 100 mg fixed dose to Male Beagle Dogs. The concentrations of BIC in plasma were determined with a liquid chromatography-tandem mass spectrometry (LC-MS/MS) method.
At dosing, the animals weighed between 7.98 and 11.6 kg. The animals from the SC leg with the PVP suspension were not fasted. […]
The intravenous dose was administered as a 30-minute infusion via a saphenous vein. […] Individual dose was calculated based on body weights recorded on the day of dose administration. […]

[3] = Plasma pharmacokinetics of BIC after single SC or IM injection of long acting formulations in monkey; assay type: in vivo, cynomolgus monkey

Compound: O=C(NCc1c(F)cc(F)cc1F)c1cn2c(c(O)c1=O)C(=O)N1[C@H]3CC[C@H](C3)O[C@@H]1C2 [BIC, (2R,5S,13aR)-8-hydroxy-7,9-dioxo-N-(2,4,6-trifluorobenzyl)-2,3,4,5,7,9,13,13a-octahydro-2,5-methanopyrido[1',2':4,5]pyrazino[2,1-b][1,3]oxazepine-10-carboxamide]
- systemic elimination rate (ke1 = CL/Vss) [1]: ~ 0.0162 h^-1
- systemic elimination rate (ke1 = CL/Vss) [2]: ~ 0.302 h^-1
- systemic elimination rate (ke1 = CL/Vss) [3]: ~ 0.253 h^-1
